Our source for the IC50 values is patent US20250092084A1, “C7, C12, AND C16 SUBSTITUTED NEUROACTIVE STEROIDS AND THEIR METHODS OF USE” (Sage Therapeutics, Inc., priority 2016, published 2025).

A word on the IC50: it is the concentration at which inhibition is half-maximal.

The target in the assay is rat brain cortical membranes (GABA receptor complex, [35S]-TBPS binding). Nature of the assay: Steroid inhibition of [35S]-TBPS binding. The note with it: 3 nM [35S]-TBPS, in the presence of 5 mM GABA. Here is the method:
[^35S]-t-Butylbicyclophosphorothionate (TBPS) binding assays using rat brain cortical membranes in the presence of 5 mM GABA has been described (Gee et al, J Pharmacol. Exp. Ther. 1987, 241, 346-353; Hawkinson et al, Mol. Pharmacol. 1994, 46, 977-985; Lewin, A. H et al., Mol. Pharmacol. 1989, 35, 189-194).
Briefly, cortices are rapidly removed following decapitation of carbon dioxide-anesthetized Sprague-Dawley rats (200-250 g). The cortices are homogenized in 10 volumes of ice-cold 0.32 M sucrose using a glass/teflon homogenizer and centrifuged at 1500×g for 10 min at 4° C. The resultant supernatants are centrifuged at 10,000×g for 20 min at 4° C. to obtain the P2 pellets. The P2 pellets are resuspended in 200 mM NaCl/50 mM Na—K phosphate pH 7.4 buffer and centrifuged at 10,000×g for 10 min at 4° C. This washing procedure is repeated twice and the pellets are resuspended in 10 volumes of buffer. Aliquots ([…]) of the membrane suspensions are incubated with 3 nM [^35S]-TBPS and […] aliquots of test drug dissolved in dimethyl sulfoxide (DMSO) (final 0.5%) in the presence of 5 mM GABA. The incubation is brought to a final volume of 1.0 mL with buffer. Nonspecific binding is determined in the presence of […] and ranged from 15 to 25%. Following a 90 min incubation at room temp, the assays are terminated by filtration through glass fiber filters (Schleicher and Schuell No. 32) using a cell harvester (Brandel) and rinsed three times with ice-cold buffer. Filter bound radioactivity is measured by liquid scintillation spectrometry. Non-linear curve fitting of the overall data for each drug averaged for each concentration is done using Prism (GraphPad). […] The concentration of test compound producing 50% inhibition (IC50) of specific binding and the maximal extent of inhibition (Imax) are determined for the individual experiments with the same model used for the overall data and then the means±SEMs of the individual experiments are calculated.
Various compounds are or can be screened to determine their potential as modulators of [^35S]-TBPS binding in vitro. These assays are or can be performed in accordance with the above discussed procedures.
`CO[C@@H]1C[C@H]2[C@@H](CC[C@H]3C[C@](C)(O)CC[C@@]32C)[C@@H]2CC[C@H](C(=O)Cn3cc(C#N)cn3)[C@@]12C` [Compound 44]: the IC50 lay in the range of 10 to 50 nM.

Regarding `CC(=O)[C@H]1CC[C@H]2[C@@H]3CC[C@H]4C[C@](C)(O)CC[C@]4(C)[C@H]3CC(=O)[C@]12C` [Compound 46], the IC50 is ≥ 500 nM.

For the compound `C[C@@]1(O)CC[C@@]2(C)[C@@H](CC[C@@H]3[C@@H]2C[C@@H](O)[C@]2(C)[C@@H](C(=O)Cn4cc(C#N)cn4)CC[C@@H]32)C1` [Compound 47], the concentration for half-maximal inhibition (IC50) was ≥ 500 nM.

For the compound `C[C@@]1(O)CC[C@@]2(C)[C@@H](CC[C@@H]3[C@@H]2CC(=O)[C@]2(C)[C@@H](C(=O)Cn4cc(C#N)cn4)CC[C@@H]32)C1` [Compound 48], the IC50 was ≥ 500 nM.

For the compound `C[C@@]1(O)CC[C@@]2(C)[C@@H](CC[C@@H]3[C@@H]2C[C@@H](O)[C@]2(C)[C@@H](C(=O)Cn4cc5ccncc5n4)CC[C@@H]32)C1` [Compound 49], the IC50 lay in the range of 100 to 500 nM.

With `C[C@@]1(O)CC[C@@]2(C)[C@@H](CC[C@@H]3[C@@H]2C[C@@H](O)[C@]2(C)[C@@H](C(=O)Cn4ncc5ccncc54)CC[C@@H]32)C1` [Compound 50], the IC50 is ≥ 500 nM.

Take `CO[C@H]1C[C@H]2[C@@H](CC[C@H]3C[C@](C)(O)CC[C@@]32C)[C@@H]2CC[C@@H](C(C)=O)[C@@]12C` [Compound 51]: the half-maximal inhibitory concentration (IC50) was ≥ 500 nM.

On to `CO[C@H]1C[C@H]2[C@@H](CC[C@H]3C[C@](C)(O)CC[C@@]32C)[C@@H]2CC[C@H](C(C)=O)[C@@]12C` [Compound 52], for which the IC50 was ≥ 500 nM.

Turning to `CO[C@H]1C[C@H]2[C@@H](CC[C@H]3C[C@](C)(O)CC[C@@]32C)[C@@H]2CC[C@H](C(=O)Cn3cc(C#N)cn3)[C@@]12C` [Compound 53], the IC50 was ≥ 500 nM.

On to `CO[C@H]1C[C@H]2[C@@H](CC[C@H]3C[C@](C)(O)CC[C@@]32C)[C@@H]2CC[C@H](C(=O)Cn3cc4ccncc4n3)[C@@]12C` [Compound 54], for which the IC50 was ≥ 500 nM.

For the compound `CO[C@H]1C[C@H]2[C@@H](CC[C@H]3C[C@](C)(O)CC[C@@]32C)[C@@H]2CC[C@H](C(=O)Cn3ncc4ccncc43)[C@@]12C` [Compound 55], the IC50 is ≥ 500 nM.

With `CO[C@@H]1C[C@H]2[C@@H](CC[C@@H]3C[C@](C)(O)CC[C@@H]32)[C@@H]2CC[C@H](C(C)=O)[C@@]12C` [Compound 56], the IC50 fell in the range of 50 to 100 nM.

On to `CO[C@@H]1C[C@H]2[C@@H](CC[C@@H]3C[C@](C)(O)CC[C@@H]32)[C@@H]2CC[C@H](C(=O)Cn3nnnc3C)[C@@]12C` [Compound 59], for which the IC50 was 100 to 500 nM.

As to `CO[C@@H]1C[C@H]2[C@@H](CC[C@H]3C[C@](C)(O)CC[C@@]32C)[C@@H]2CC[C@H](C(=O)Cn3nnnc3C)[C@@]12C` [Compound 61], the IC50 fell in the range of 100 to 500 nM.

With `CO[C@@H]1C[C@H]2[C@@H](CC[C@H]3C[C@](C)(O)CC[C@@]32C)[C@@H]2CC[C@H](C(=O)Cn3cc4ccncc4n3)[C@@]12C` [Compound 62], the IC50 fell in the range of 10 to 50 nM.

As to `CO[C@@H]1C[C@H]2[C@@H](CC[C@H]3C[C@](C)(O)CC[C@@]32C)[C@@H]2CC[C@H](C(=O)Cn3ncc4ccncc43)[C@@]12C` [Compound 63], the half-maximal inhibitory concentration (IC50) was 100 to 500 nM.

In the case of `CC(=O)[C@H]1[C@H](C)C[C@H]2[C@@H]3CC[C@H]4C[C@](C)(O)CC[C@]4(C)[C@H]3CC[C@@]21C` [Compound 64], the IC50 lay in the range of 100 to 500 nM.

With `CC[C@@H]1C[C@H]2[C@@H]3CC[C@H]4C[C@](C)(O)CC[C@]4(C)[C@H]3CC[C@]2(C)[C@H]1C(C)=O` [Compound 65], the IC50 was ≥ 500 nM.

On to `C[C@@H]1C[C@H]2[C@@H]3CC[C@H]4C[C@](C)(O)CC[C@]4(C)[C@H]3CC[C@]2(C)[C@H]1C(=O)Cn1cc(C#N)cn1` [Compound 66], for which the 50% inhibitory concentration (IC50) is 10 to 50 nM.

Consider `COc1ccc2nn(CC(=O)[C@H]3[C@H](C)C[C@H]4[C@@H]5CC[C@H]6C[C@](C)(O)CC[C@]6(C)[C@H]5CC[C@@]43C)nc2c1` [Compound 67], for which the IC50 was in the range of 10 to 50 nM.

For the compound `COc1ccc2nnn(CC(=O)[C@H]3[C@H](C)C[C@H]4[C@@H]5CC[C@H]6C[C@](C)(O)CC[C@]6(C)[C@H]5CC[C@@]43C)c2c1` [Compound 68], the IC50 is 10 to 50 nM.

As to `COc1ccc2c(c1)nnn2CC(=O)[C@H]1[C@H](C)C[C@H]2[C@@H]3CC[C@H]4C[C@](C)(O)CC[C@]4(C)[C@H]3CC[C@@]21C` [Compound 69], the IC50 lay within 10 to 50 nM.

`CC[C@@H]1C[C@H]2[C@@H]3CC[C@H]4C[C@](C)(O)CC[C@]4(C)[C@H]3CC[C@]2(C)[C@H]1C(=O)Cn1nc2ccc(OC)cc2n1` [Compound 70]: the IC50 is ≥ 500 nM.

As to `CC[C@@H]1C[C@H]2[C@@H]3CC[C@H]4C[C@](C)(O)CC[C@]4(C)[C@H]3CC[C@]2(C)[C@H]1C(=O)Cn1nnc2ccc(OC)cc21` [Compound 71], the IC50 was ≥ 500 nM.

As for `CC[C@@H]1C[C@H]2[C@@H]3CC[C@H]4C[C@](C)(O)CC[C@]4(C)[C@H]3CC[C@]2(C)[C@H]1C(=O)Cn1nnc2cc(OC)ccc21` [Compound 72], the IC50 is ≥ 500 nM.

`CC(=O)[C@H]1[C@H](C(C)C)C[C@H]2[C@@H]3CC[C@H]4C[C@](C)(O)CC[C@]4(C)[C@H]3CC[C@@]21C` [Compound 73]: the IC50 was ≥ 500 nM.

For `CC[C@@H]1C[C@H]2[C@@H]3CC[C@H]4C[C@](C)(O)CC[C@]4(C)[C@H]3CC[C@]2(C)[C@H]1C(=O)Cn1cc(C#N)cn1` [Compound 74], the IC50 was ≥ 500 nM.

As to `CC(C)[C@@H]1C[C@H]2[C@@H]3CC[C@H]4C[C@](C)(O)CC[C@]4(C)[C@H]3CC[C@]2(C)[C@H]1C(=O)Cn1ncc2ccncc21` [Compound 75], the IC50 is ≥ 500 nM.

In the case of `CC(C)[C@@H]1C[C@H]2[C@@H]3CC[C@H]4C[C@](C)(O)CC[C@]4(C)[C@H]3CC[C@]2(C)[C@H]1C(=O)Cn1cc2ccncc2n1` [Compound 76], the IC50 is ≥ 500 nM.

As to `COc1ccc2nn(CC(=O)[C@H]3[C@H](C(C)C)C[C@H]4[C@@H]5CC[C@H]6C[C@](C)(O)CC[C@]6(C)[C@H]5CC[C@@]43C)nc2c1` [Compound 77], the IC50 is ≥ 500 nM.

`CC(C)[C@@H]1C[C@H]2[C@@H]3CC[C@H]4C[C@](C)(O)CC[C@]4(C)[C@H]3CC[C@]2(C)[C@H]1C(=O)Cn1cc(C#N)cn1` [Compound 88]: the IC50 is ≥ 500 nM.

Turning to `Cc1nnn(CC(=O)[C@H]2[C@H](C)C[C@H]3[C@@H]4CC[C@H]5C[C@](C)(O)CC[C@]5(C)[C@H]4CC[C@@]32C)n1` [Compound 89], the IC50 was in the range of 10 to 50 nM.

Consider `Cc1nnnn1CC(=O)[C@H]1[C@H](C)C[C@H]2[C@@H]3CC[C@H]4C[C@](C)(O)CC[C@]4(C)[C@H]3CC[C@@]21C` [Compound 90], for which the IC50 lay within 100 to 500 nM.
